The values below come from paper PMC2918227 (Bioorganic & medicinal chemistry, 2010).

For one data set, the target named is human 5-HT2A receptor (Homo sapiens, UniProt P28223). The data set is described as follows: 5HT2A Ke determination in FLIPR assay. In kind it is cell-based.
Data set [1] can be described thus: Stability of the isolated free base on storage. The note with it: yellow oil, converted to hydrochloride salt for long-term storage. Type of data set: physicochemical.

Sequence of human 5-HT2A receptor (P28223 whole entry): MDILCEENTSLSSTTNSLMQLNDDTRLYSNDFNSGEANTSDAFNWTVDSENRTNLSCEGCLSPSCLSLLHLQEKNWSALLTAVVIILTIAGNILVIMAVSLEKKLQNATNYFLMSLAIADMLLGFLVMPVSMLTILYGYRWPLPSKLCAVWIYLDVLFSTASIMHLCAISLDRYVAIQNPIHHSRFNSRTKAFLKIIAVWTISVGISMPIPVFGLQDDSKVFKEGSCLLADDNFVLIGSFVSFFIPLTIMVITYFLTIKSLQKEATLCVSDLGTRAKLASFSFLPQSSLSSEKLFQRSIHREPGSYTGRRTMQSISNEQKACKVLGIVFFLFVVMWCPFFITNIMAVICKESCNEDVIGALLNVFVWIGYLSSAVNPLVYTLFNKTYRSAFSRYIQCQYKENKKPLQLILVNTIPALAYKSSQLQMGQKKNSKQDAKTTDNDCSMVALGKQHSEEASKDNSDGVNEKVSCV

`COc1cc2c3c(c1OC)-c1cc4c(cc1CC3N(S(C)(=O)=O)CC2)OCO4` (stereo not drawn) [Compound 8d, 1,2-dimethoxy-6-methanesulfonyl-5,6,6a,7-tetrahydro-4H-benzo[de][1,3]benzodioxolo[5,6-g]quinoline]: at human 5-HT2A receptor, the Kb was > 10 µM.
Still for that read-out and setting: with `COc1cc2c3c(c1OC)-c1cc4c(cc1CC3N(C(C)=O)CC2)OCO4` (stereo not drawn) [Compound 8c, 1,2-dimethoxy-6-acetyl-5,6,6a,7-tetrahydro-4H-benzo[de][1,3]benzodioxolo[5,6-g]quinoline] the figure was > 10 µM.
Regarding `COc1cc2c3c(c1OC)-c1cc4c(cc1CC3NCC2)OCO4` (stereo not drawn) [Compound 8a, 1,2-dimethoxy-5,6,6a,7-tetrahydro-4H-benzo[de][1,3]benzodioxolo[5,6-g]quinoline], the “stability of the compound” value in data set [1] is listed as “unstable”.
